{"source": "patent US12213483B1", "about": "“Herbicidal compositions comprising trifludimoxazin” (BASF SE, priority 2024, dated 2025)", "format_in_all_cases": "in vivo", "key": {"Avena fatua (AVEFA) [1]": {"test_system": "Avena fatua (AVEFA)", "test": "Post-emergence application in field trials, AVEFA", "settings": "29 DAT; water volume 100 l/ha; pre plant burndown; growth stage 14-23; height 24-40 cm; 18 g ai/ha", "method": "(§1) In the examples below, using the method of S. R. Colby (1967) “Calculating synergistic and antagonistic responses of herbicide combinations”, Weeds 15, p. 22ff., the value E, which is expected if the activity of the individual active compounds is only additive, was calculated: E=X+Y−(X·Y/100) • where • X=percent activity using active herbicide A at an application rate a; • Y=percent activity using active trifludimoxazin at an application rate b; • E=expected activity (in %) by A+B at application rates a+b.\n(§2) If the value found experimentally is higher than the value E calculated according to Colby, a synergistic effect is present.\n(§3) On field test sites, natural weed infestation or seeded weeds were treated post-emergence of the weeds.\n(§4) In the field trials, the weedy plants were treated as indicated below.\n(§5) Herbicide A-1 (342 g/I), trifludimoxazin (500 g/I) and saflufenacil (342 g/I) were, together with addition of 1% MSO (methylated seed oil) as adjuvant (unless indicated otherwise), formulated in water as distribution medium as indicated and sprayed with commercial flat fan nozzles.\n(§6) In the following experiments, the herbicidal activity for the individual herbicidal compositions (solo and mixture applications) was assessed at the indicated days after treatment (DAT). The assessments for the damage on undesired weeds caused by the composition was carried out using a scale from 0 to 100%, compared to the untreated control plants. Here, 0 means no damage and 100 means complete destruction of the plants.\n(§7) Herbicide A-1 (100 g/l) and trifludimoxazin (500 g/l) were, together with addition of 1% MSO (methylated seed oil) as adjuvant (unless indicated otherwise), formulated in water as distribution medium as indicated and sprayed with commercial flat fan nozzles."}, "Setaria viridis (SETVI)": {"test_system": "Setaria viridis (SETVI)", "test": "Post-emergence application in greenhouse trials, SETVI", "method": "as §1, §2\n(§8) The culture containers used were plastic pots containing loamy sand with approximately 3.0% of humus as substrate. The seeds of the test plants were sown separately for each species.\n(§9) For the post-emergence treatment, the test plants were grown to a plant height of from 3 to 15 cm, depending on the plant habit, and only then treated with the active compounds which had been suspended or emulsified in water. To this end, the test plants were either sown directly, and grown in the same containers, or they were first grown separately as seedlings and transplanted into the test containers a few days prior to treatment.\n(§10) Depending on the species, the plants were kept at 10-25° C. and 20-35° C., respectively.\n(§11) The test period extended over 2 to 4 weeks. During this time, the plants were tended and their response to the individual treatments was evaluated.\n(§12) Evaluation was carried out using a scale from 0 to 100. 100 means no emergence of the plants, or complete destruction of at least the above-ground parts, and 0 means no damage or normal course of growth. A good herbicidal activity is given at values of at least 70, and very good herbicidal activity is given at values of at least 85.\n(§13) In the greenhouse trials, unless indicated otherwise, herbicide A, trifludimoxazin and saflufenacil were formulated (50 g/I) and applied with addition of 1% MSO (methylated seed oil) as adjuvant. The solvent used was water (200 I/ha)."}, "Hordeum vulgare (HORVS)": {"test_system": "Hordeum vulgare (HORVS)", "test": "Post-emergence application in field trials, HORVS", "settings": "29 DAT; water volume 100 l/ha; pre plant burndown; growth stage 15-24; height 25-45 cm; 18 g ai/ha", "method": "as §1, §2, §3, §4, §5, §6, §7"}, "[2]": {"test_system": "Sorghum halapense (SORHA)", "test": "Post-emergence application in greenhouse trials, SORHA", "settings": "20 DAT; growth stage 14; 0.9 g ai/ha", "method": "as §1, §2, §8, §9, §10, §11, §12, §13"}, "[3]": {"test_system": "Digitaria sanguinales (DIGSA)", "test": "Post-emergence application in greenhouse trials, DIGSA", "settings": "7 DAT; GS 12; C-1 0.3 g ai/ha", "method": "as §1, §2, §8, §9, §10, §11, §12, §13"}, "[4]": {"test_system": "Commelina benghalensis (COMBE)", "test": "Post-emergence application in greenhouse trials, COMBE", "settings": "20 DAT; growth stage 21; 0.9 g ai/ha", "method": "as §1, §2, §8, §9, §10, §11, §12, §13"}, "Kochia scoparia (KCHSC)": {"test_system": "Kochia scoparia (KCHSC)", "test": "Post-emergence application in greenhouse trials, KCHSC", "method": "as §1, §2, §8, §9, §10, §11, §12, §13"}, "[5]": {"test_system": "Lolium multiflorum (LOLMU)", "test": "Post-emergence application in greenhouse trials, LOLMU", "settings": "20 DAT; growth stage 13; 0.3 g ai/ha", "method": "as §1, §2, §8, §9, §10, §11, §12, §13"}, "[6]": {"test_system": "Abutilon theophrasti (ABUTH)", "test": "Post-emergence application in greenhouse trials, ABUTH", "method": "as §1, §2, §8, §9, §10, §11, §12, §13"}, "Avena fatua (AVEFA) [7]": {"test_system": "Avena fatua (AVEFA)", "test": "Post-emergence application in greenhouse trials, AVEFA", "settings": "20 DAT; growth stage 13; 0.3 g ai/ha", "method": "as §1, §2, §8, §9, §10, §11, §12, §13"}}, "note": "Values joined by “and” are separate entries in the source; they are usually repeats but may differ in a detail not shown here. Equal entries are not always repeated."}
{"smiles": "CC(C)N(C)S(=O)(=O)NC(=O)c1cc(-n2c(=O)cc(C(F)(F)F)n(C)c2=O)c(F)cc1Cl", "note": "[C-1, saflufenacil]", "values": [{"measurement": "% Herbicidal activity", "setting": "Avena fatua (AVEFA) [1]", "value": 0, "unit": "%"}, {"measurement": "% Herbicidal activity", "setting": "Setaria viridis (SETVI); 7 DAT, GS 14, C-1 0.9 g ai/ha", "value": 35, "unit": "%"}, {"measurement": "% Herbicidal activity", "setting": "Setaria viridis (SETVI); 20 DAT, growth stage 14, 0.9 g ai/ha", "value": 35, "unit": "%"}, {"measurement": "% Herbicidal activity", "setting": "Hordeum vulgare (HORVS)", "value": 0, "unit": "%"}, {"measurement": "% Herbicidal activity", "setting": "[2]", "value": 0, "unit": "%"}, {"measurement": "% Herbicidal activity", "setting": "[3]", "value": "10% and 15%"}, {"measurement": "% Herbicidal activity", "setting": "[4]", "value": 80, "unit": "%"}, {"measurement": "% Herbicidal activity", "setting": "Kochia scoparia (KCHSC); 6 DAT, GS 33, C-1 0.5 g ai/ha", "value": 60, "unit": "%"}, {"measurement": "% Herbicidal activity", "setting": "Kochia scoparia (KCHSC); 20 DAT, growth stage 33, 0.5 g ai/ha", "value": 40, "unit": "%"}, {"measurement": "% Herbicidal activity", "setting": "Kochia scoparia (KCHSC); 20 DAT, growth stage 33, 0.9 g ai/ha", "value": 60, "unit": "%"}, {"measurement": "% Herbicidal activity", "setting": "[5]", "value": 0, "unit": "%"}, {"measurement": "% Herbicidal activity", "setting": "[6]; 6 DAT, GS 33, C-1 1.1 g ai/ha", "value": 45, "unit": "%"}, {"measurement": "% Herbicidal activity", "setting": "[6]; 20 DAT, growth stage 33, 1.1 g ai/ha", "value": 0, "unit": "%"}, {"measurement": "% Herbicidal activity", "setting": "Avena fatua (AVEFA) [7]", "value": 0, "unit": "%"}]}
